In patent US20050203102A1, “antibacterial agents” (priority 2004, published 2005):
In brackets after ≈: the same amount, converted by molar mass.

Experiments:
Experiment in all cases: Antimicrobial testing, Agar Dilution Method (NCCLS), MIC
Type in all cases: cell-based
E. faecium ATCC 700221 = conditions: Enterococcus faecium, ATCC700221, Mueller Hinton Agar, 35° C., 20 hours, read-out: Antimicrobial Screening (MIC) E. faecium ATCC 700221
Protocol: (§1) Briefly, the compounds of invention were weighed, dissolved in Dimethyl Sulfoxide, serially diluted in the same solvent and then incorporated into molten Mueller Hinton Agar in a petridish before solidification, with each petridish containing a different concentration of a compound.
(§2) The Bacterial Inoculum was prepared by touching the tops of 3 to 5 well isolated bacterial colonies with the same morphological appearance from an 18 hour old culture with an inoculating loop, transferring the growth to a tube containing 5 ml of normal saline and adjusting the turbidity of the saline suspension to 0.5 Macfarland Turbidity Standard equivalent to a bacterial population of 1.5×10^8 colony forming units (CFU) per millilitre of suspension.
(§3) The bacterial inoculum prepared in the above manner was inoculated onto petri dishes containing Mueller Hinton Agar which had earlier been incorporated with different dilutions of the compounds of invention by a Multipoint Inoculator with each inoculum spot containing approximately 1×10^4 colony forming units (CFU) of bacteria.
(§4) The inoculated petridishes were incubated at 35° C. in an ambient atmosphere for 20 hours. Petridishes containing different concentrations of Vancomycin and Oxacillin and inoculated with Staphylococcus aureus, Coagulase Negative Staphylococci and Enterococci were incubated for 24 hours.
(§5) The following minimum inhibitory concentrations (μg/ml) were obtained for representative compounds of the invention which are given in the following table: […]

E. faecalis ATCC 29212 = conditions: Enterococcus faecalis, ATCC29212, Mueller Hinton Agar, 35° C., 20 hours, read-out: Antimicrobial Screening (MIC) E. faecalis ATCC 29212
Protocol: as §1, §2, §3, §4, §5

S. aureus MRO 00001 = conditions: Staphylococcus aureus, MRO00001, Mueller Hinton Agar, 35° C., 20 hours, read-out: Antimicrobial Screening (MIC) S. aureus MRO 00001
Protocol: as §1, §2, §3, §4, §5

S. epidermidis MRO 02002 = conditions: Staphylococcus epidermidis, MRO02002, Mueller Hinton Agar, 35° C., 20 hours, read-out: Antimicrobial Screening (MIC) S. epidermidis MRO 02002
Protocol: as §1, §2, §3, §4, §5

SMILES	MIC (E. faecium ATCC 700221) [µg/mL]	MIC (E. faecalis ATCC 29212) [µg/mL]	MIC (S. aureus MRO 00001) [µg/mL]	MIC (S. epidermidis MRO 02002) [µg/mL]
COC(=O)NC[C@H]1CN(c2ccc(N3CCN(c4ccc(/C=C5/SC(=S)NC5=O)cc4)CC3)c(F)c2)C(=O)O1 [Example 11]	> 16	> 16	> 16	> 16
CC(=O)NC[C@H]1CN(c2ccc(N3CCN(c4ccc(CC5C(=O)Nc6ccccc65)cc4)CC3)c(F)c2)C(=O)O1 (some centres unmarked) [Example 6]	4 (≈ 7.17 µM)	4 (≈ 7.17 µM)	4 (≈ 7.17 µM)	4 (≈ 7.17 µM)
CCOC(=O)NC[C@H]1CN(c2ccc(N3CCN(c4ccc(/C=C5/SC(=S)N(CC(=O)O)C5=O)cc4)CC3)c(F)c2)C(=O)O1 [Example 12]	> 16	> 16	> 16	> 16
COC(=O)NC[C@H]1CN(c2ccc(N3CCN(c4ccc(/C=C5\SC(=O)NC5=O)cc4)CC3)c(F)c2)C(=O)O1 [Example 9, (S)-N-3-13-fluoro-4-(4-(5-methylene-1,3-thiazolidine-2,4-dione)phenylpiperazin-1-yl)phenyll-1,3-oxazolidin-2-one-5-methyl carbamate]	0.5 (≈ 0.9 µM)	1 (≈ 1.8 µM)	1 (≈ 1.8 µM)	2 (≈ 3.6 µM)
COC(=O)NC[C@H]1CN(c2ccc(N3CCN(c4ccc(CC5C(=O)Nc6ccccc65)cc4)CC3)c(F)c2)C(=O)O1 (some centres unmarked) [Example 17]	4 (≈ 6.97 µM)	4 (≈ 6.97 µM)	4 (≈ 6.97 µM)	4 (≈ 6.97 µM)
CC(=O)NC[C@H]1CN(c2ccc(N3CCN(c4ccc(CC5SC(=O)NC5=O)cc4)CC3)c(F)c2)C(=O)O1 (some centres unmarked) [Example 7]	8 (≈ 14.8 µM)	8 (≈ 14.8 µM)	8 (≈ 14.8 µM)	8 (≈ 14.8 µM)
COC(=S)NC[C@H]1CN(c2ccc(N3CCN(c4ccc(/C=C5\SC(=O)NC5=O)cc4)CC3)c(F)c2)C(=O)O1 [Example 8, (S)-N-3-[3-fluoro-4-(4-(5-methylene-1,3-thiazolidine-2,4-dione)phenylpiperazin-1-yl)phenyll-1,3-oxazolidin-2-one-5-methylthio carbamate]	0.5 (≈ 0.875 µM)	0.5 (≈ 0.875 µM)	0.5 (≈ 0.875 µM)	0.5 (≈ 0.875 µM)
CCOC(=O)NC[C@H]1CN(c2ccc(N3CCN(c4ccc(/C=C5/SC(=S)NC5=O)cc4)CC3)c(F)c2)C(=O)O1 [Example 13]	> 16	> 16	> 16	> 16
CC(=O)NC[C@H]1CN(c2ccc(N3CCN(c4ccc(/C=C5\C(=O)Nc6ccccc65)cc4)CC3)c(F)c2)C(=O)O1 [Example 3]	16 (≈ 28.8 µM)	> 16	> 16	> 16
CC(=O)NC[C@H]1CN(c2ccc(N3CCN(c4ccc(/C=C5/SC(=S)NC5=O)cc4)CC3)c(F)c2)C(=O)O1 [Example 5]	1 (≈ 1.8 µM)	2 (≈ 3.6 µM)	1 (≈ 1.8 µM)	1 (≈ 1.8 µM)
CC(=O)NC[C@H]1CN(c2ccc(N3CCN(c4ccc(/C=C5/SC(=O)NC5=O)cc4)CC3)c(F)c2)C(=O)O1 [Example 4]	1 (≈ 1.85 µM)	1 (≈ 1.85 µM)	1 (≈ 1.85 µM)	1 (≈ 1.85 µM)
CCOC(=O)NC[C@H]1CN(c2ccc(N3CCN(c4ccc(CC5SC(=S)NC5=O)cc4)CC3)c(F)c2)C(=O)O1 (some centres unmarked) [Example 16]	> 16	> 16	> 16	> 16
COC(=O)NC[C@H]1CN(c2ccc(N3CCN(c4ccc(/C=C5/SC(=S)N(CC(=O)O)C5=O)cc4)CC3)c(F)c2)C(=O)O1 [Example 10]	8 (≈ 12.7 µM)	8 (≈ 12.7 µM)	8 (≈ 12.7 µM)	8 (≈ 12.7 µM)
COC(=O)NC[C@H]1CN(c2ccc(N3CCN(c4ccc(CC5SC(=O)NC5=O)cc4)CC3)c(F)c2)C(=O)O1 (stereo partly drawn) [Example 14, [(5S)-3-[3-fluoro-4-(4-(5-methy-1,3-thiazolidine-2,4-dione)phenylpiperazin-1-yl)phenyll-1,3-oxazolidin-2-one-5-methyl carbamate]	4 (≈ 7.17 µM)	8 (≈ 14.3 µM)	8 (≈ 14.3 µM)	8 (≈ 14.3 µM)
CCOC(=O)NC[C@H]1CN(c2ccc(N3CCN(c4ccc(CC5C(=O)Nc6ccccc65)cc4)CC3)c(F)c2)C(=O)O1 (some centres unmarked) [Example 15]	> 16	> 16	> 16	> 16
CC(=O)NC[C@H]1CN(c2ccc(N3CCN(c4ccc(/C=C5/SC(=S)N(CC(=O)O)C5=O)cc4)CC3)c(F)c2)C(=O)O1 [Example 2]	2 (≈ 3.26 µM)	2 (≈ 3.26 µM)	2 (≈ 3.26 µM)	2 (≈ 3.26 µM)
CC(=O)NC[C@H]1CN(c2ccc(N3CCN(c4ccc(C=O)cc4)CC3)c(F)c2)C(=O)O1 [Example 1]	1 (≈ 2.27 µM)	2 (≈ 4.54 µM)	1 (≈ 2.27 µM)	1 (≈ 2.27 µM)
